Assay results published in patent US12681015B2, “Methods for predicting patient response to DMARDs” (Queen Mary University of London, priority 2019, dated 2026).

System: plasma SPM concentrations in mice
Assay: MTX given intravenously to mice, plasma SPM by LC-MS/MS lipid mediator profiling
Format: in vivo
Conditions: blood after 1 hour; for plasma 4S,14S-diHDHA concentration in mice, Mean ± SEM / plasma 5S,15S-diHETE concentration in mice, Mean ± SEM / plasma 7S,14S-diHDHA concentration in mice, Mean ± SEM / plasma 7S,14S-diHDPA concentration in mice, Mean ± SEM / plasma 10S,17S-diHDPA concentration in mice, Mean ± SEM / plasma 13,14-dehydro-15-oxo-LXA4 concentration in mice, Mean ± SEM / plasma 14-oxo-MaR1 concentration in mice, Mean ± SEM / plasma 15-oxo-LXA4 concentration in mice, Mean ± SEM / plasma 15R-LXA4 concentration in mice, Mean ± SEM / plasma 15R-LXB4 concentration in mice, Mean ± SEM / plasma 17R-PD1 concentration in mice, Mean ± SEM / plasma 17R-RvD1 concentration in mice, Mean ± SEM / plasma 17R-RvD3 concentration in mice, Mean ± SEM / plasma 22-OH-MaR1 concentration in mice, Mean ± SEM / plasma 22-OH-PD1 concentration in mice, Mean ± SEM / plasma LXA4 concentration in mice, Mean ± SEM / plasma LXB4 concentration in mice, Mean ± SEM / plasma MaR1 concentration in mice, Mean ± SEM / plasma MaR1n-3 DPA concentration in mice, Mean ± SEM / plasma MaR2 concentration in mice, Mean ± SEM / plasma PD1 concentration in mice, Mean ± SEM / plasma PD1n-3 DPA concentration in mice, Mean ± SEM / plasma PDx concentration in mice, Mean ± SEM / plasma RvD1 concentration in mice, Mean ± SEM / plasma RvD1n-3 DPA concentration in mice, Mean ± SEM / plasma RvD2 concentration in mice, Mean ± SEM / plasma RvD2n-3 DPA concentration in mice, Mean ± SEM / plasma RvD3 concentration in mice, Mean ± SEM / plasma RvD4 concentration in mice, Mean ± SEM / plasma RvD5 concentration in mice, Mean ± SEM / plasma RvD5n-3 DPA concentration in mice, Mean ± SEM / plasma RvD6 concentration in mice, Mean ± SEM / plasma RvE1 concentration in mice, Mean ± SEM / plasma RvE2 concentration in mice, Mean ± SEM / plasma RvE3 concentration in mice, Mean ± SEM / plasma RvT1 concentration in mice, Mean ± SEM / plasma RvT2 concentration in mice, Mean ± SEM / plasma RvT3 concentration in mice, Mean ± SEM / plasma RvT4 concentration in mice, Mean ± SEM: intravenous injection
Experimental: Plasma was obtained by centrifugation and peripheral blood SPM concentrations were determined using LC-MS/MS based lipid mediator profiling. (A) OPLS-DA analysis of plasma SPM concentrations. Colored spherical areas display 95% confidence region of respective incubations. […] Results for A, B are representative of n=6 donors from three distinct experiments. […] Blood was then collected after 1 hour and SPM concentrations were determined using LC-MS/MS based lipid mediator profiling (D) oPLS-DA analysis of plasma SPM concentrations. Colored areas display 95% confidence region of respective incubations. […] Results are representative of n=4 mice per group and experiments were conducted on two distinct occasions.
Plasma was obtained from peripheral blood of healthy volunteers, patients and mouse following centrifugation at 1500×g for 10 min at room temperature. Paws were collected and immediately transferred to liquid nitrogen prior to homogenization in 1 ml ice cold MeOH and homogenized using a glass dounce. All samples for LC-MS/MS-based profiling were extracted using solid-phase extraction columns as in Walker, M. E., Souza, P. R., Colas, R. A. & Dalli, J. “13-Series resolvins mediate the leukocyte-platelet actions of atorvastatin and pravastatin in inflammatory arthritis.” FASEB J 31, 3636-3648 (2017), the contents of which are incorporated herein by reference. Prior to sample extraction, deuterated internal standards, representing each region in the chromatographic analysis (500 pg each) were added to facilitate quantification. Samples were kept at −20° C. for a minimum of 45 min to allow protein precipitation. Supernatants were subjected to solid phase extraction, methyl formate fraction collected, brought to dryness and suspended in phase (methanol/water, 1:1, vol/vol) for injection on a Shimadzu LC-20AD HPLC and a Shimadzu SIL-20AC autoinjector, paired with a QTrap 5500 or QTrap 6500 plus (Sciex). An Agilent Poroshell 120 EC-C18 column (100 mm×4.6 mm×2.7 μm) was kept at 50° C. and mediators eluted using a mobile phase consisting of methanol/water/acetic acid of 20:80:0.01 (vol/vol/vol) that was ramped to 50:50:0.01 (vol/vol/vol) over 0.5 min and then to 80:20:0.01 (vol/vol/vol) from 2 min to 11 min, maintained till 14.5 min and then rapidly ramped to 98:2:0.01 (vol/vol/vol) for the next 0.1 min. This was subsequently maintained at 98:2:0.01 (vol/vol/vol) for 5.4 min, and the flow rate was maintained at 0.5 ml/min. QTrap 5500 or QTrap 6500 plus were operated using a multiple reaction monitoring method as in Walker, M. E., Souza, P. R., Colas, R. A. & Dalli, J. “13-Series resolvins mediate the leukocyte-platelet actions of atorvastatin and pravastatin in inflammatory arthritis.” FASEB J 31, 3636-3648 (2017), the contents of which are incorporated herein by reference. Each lipid mediator was identified using established criteria including matching retention time to synthetic or authentic standards and at least 6 diagnostic ions (Walker, M. E., Souza, P. R., Colas, R. A. & Dalli, J. “13-Series resolvins mediate the leukocyte-platelet actions of atorvastatin and pravastatin in inflammatory arthritis.” FASEB J 31, 3636-3648 (2017), the contents of which are incorporated herein by reference).

[1] = mice, MTX 1 μg/mouse or 22 μg/mouse intravenous

CN(Cc1cnc2nc(N)nc(N)c2n1)c1ccc(C(=O)N[C@@H](CCC(=O)O)C(=O)O)cc1 [MTX, Methotrexate]
plasma 4S,14S-diHDHA concentration in mice, Mean ± SEM (1 μg/mouse): 18.38 ± 6.59
plasma 5S,15S-diHETE concentration in mice, Mean ± SEM (1 μg/mouse): 14.61 ± 6.53
plasma 7S,14S-diHDHA concentration in mice, Mean ± SEM (1 μg/mouse): 0.00 ± 0.00
plasma 7S,14S-diHDPA concentration in mice, Mean ± SEM (1 μg/mouse): 0.00 ± 0.00
plasma 10S,17S-diHDPA concentration in mice, Mean ± SEM (1 μg/mouse): 2.41 ± 0.97
plasma 13,14-dehydro-15-oxo-LXA4 concentration in mice, Mean ± SEM (1 μg/mouse): 0.65 ± 0.21
plasma 14-oxo-MaR1 concentration in mice, Mean ± SEM (1 μg/mouse): 3.44 ± 0.37
plasma 15-oxo-LXA4 concentration in mice, Mean ± SEM (1 μg/mouse): 3.53 ± 1.62
plasma 15R-LXA4 concentration in mice, Mean ± SEM (1 μg/mouse): 6.41 ± 0.78
plasma 15R-LXB4 concentration in mice, Mean ± SEM (1 μg/mouse): 3.90 ± 1.80
plasma 17R-PD1 concentration in mice, Mean ± SEM (1 μg/mouse): 10.50 ± 4.91
plasma 17R-RvD1 concentration in mice, Mean ± SEM (1 μg/mouse): 0.00 ± 0.00
plasma 17R-RvD3 concentration in mice, Mean ± SEM (1 μg/mouse): 4.26 ± 0.87
plasma 22-OH-MaR1 concentration in mice, Mean ± SEM (1 μg/mouse): 0.00 ± 0.00
plasma 22-OH-PD1 concentration in mice, Mean ± SEM (1 μg/mouse): 0.00 ± 0.00
plasma LXA4 concentration in mice, Mean ± SEM (1 μg/mouse): 1.06 ± 0.20
plasma LXB4 concentration in mice, Mean ± SEM (1 μg/mouse): 16.93 ± 1.92
plasma MaR1 concentration in mice, Mean ± SEM (1 μg/mouse): 71.74 ± 20.71
plasma MaR1n-3 DPA concentration in mice, Mean ± SEM (1 μg/mouse): 0.83 ± 0.34
plasma MaR2 concentration in mice, Mean ± SEM (1 μg/mouse): 2.05 ± 0.39
plasma PD1 concentration in mice, Mean ± SEM (1 μg/mouse): 10.13 ± 4.31
plasma PD1n-3 DPA concentration in mice, Mean ± SEM (1 μg/mouse): 0.00 ± 0.00
plasma PDx concentration in mice, Mean ± SEM (1 μg/mouse): 17.23 ± 1.32
plasma RvD1 concentration in mice, Mean ± SEM (1 μg/mouse): 1.39 ± 0.59
plasma RvD1n-3 DPA concentration in mice, Mean ± SEM (1 μg/mouse): 0.67 ± 0.35
plasma RvD2 concentration in mice, Mean ± SEM (1 μg/mouse): 2.60 ± 1.05
plasma RvD2n-3 DPA concentration in mice, Mean ± SEM (1 μg/mouse): 4.54 ± 1.98
plasma RvD3 concentration in mice, Mean ± SEM (1 μg/mouse): 1.30 ± 0.56
plasma RvD4 concentration in mice, Mean ± SEM (1 μg/mouse): 3.70 ± 0.70
plasma RvD5 concentration in mice, Mean ± SEM (1 μg/mouse): 1.64 ± 0.67
plasma RvD5n-3 DPA concentration in mice, Mean ± SEM (1 μg/mouse): 4.02 ± 0.79
plasma RvD6 concentration in mice, Mean ± SEM (1 μg/mouse): 1.72 ± 0.72
plasma RvE1 concentration in mice, Mean ± SEM (1 μg/mouse): 0.54 ± 0.25
plasma RvE2 concentration in mice, Mean ± SEM (1 μg/mouse): 1.70 ± 0.52
plasma RvE3 concentration in mice, Mean ± SEM (1 μg/mouse): 6.22 ± 1.39
plasma RvT1 concentration in mice, Mean ± SEM (1 μg/mouse): 10.18 ± 2.01
plasma RvT2 concentration in mice, Mean ± SEM (1 μg/mouse): 0.00 ± 0.00
plasma RvT3 concentration in mice, Mean ± SEM (1 μg/mouse): 0.63 ± 0.28
plasma RvT4 concentration in mice, Mean ± SEM (1 μg/mouse): 1.40 ± 0.64
plasma 4S,14S-diHDHA concentration in mice, Mean ± SEM (22 μg/mouse): 1.43 ± 0.64
plasma 5S,15S-diHETE concentration in mice, Mean ± SEM (22 μg/mouse): 12.65 ± 5.37
plasma 7S,14S-diHDHA concentration in mice, Mean ± SEM (22 μg/mouse): 22.10 ± 8.55
plasma 7S,14S-diHDPA concentration in mice, Mean ± SEM (22 μg/mouse): 0.64 ± 0.55
plasma 10S,17S-diHDPA concentration in mice, Mean ± SEM (22 μg/mouse): 0.52 ± 0.45
plasma 13,14-dehydro-15-oxo-LXA4 concentration in mice, Mean ± SEM (22 μg/mouse): 0.20 ± 0.15
plasma 14-oxo-MaR1 concentration in mice, Mean ± SEM (22 μg/mouse): 0.81 ± 0.41
plasma 15-oxo-LXA4 concentration in mice, Mean ± SEM (22 μg/mouse): 3.93 ± 1.01
plasma 15R-LXA4 concentration in mice, Mean ± SEM (22 μg/mouse): 6.20 ± 1.44
plasma 15R-LXB4 concentration in mice, Mean ± SEM (22 μg/mouse): 2.17 ± 0.89
plasma 17R-PD1 concentration in mice, Mean ± SEM (22 μg/mouse): 1.41 ± 0.61
plasma 17R-RvD1 concentration in mice, Mean ± SEM (22 μg/mouse): 0.26 ± 0.30
plasma 17R-RvD3 concentration in mice, Mean ± SEM (22 μg/mouse): 0.67 ± 0.65
plasma 22-OH-MaR1 concentration in mice, Mean ± SEM (22 μg/mouse): 0.00 ± 0.00
plasma 22-OH-PD1 concentration in mice, Mean ± SEM (22 μg/mouse): 0.00 ± 0.00
plasma LXA4 concentration in mice, Mean ± SEM (22 μg/mouse): 0.56 ± 0.15
plasma LXB4 concentration in mice, Mean ± SEM (22 μg/mouse): 12.72 ± 1.68
plasma MaR1 concentration in mice, Mean ± SEM (22 μg/mouse): 37.97 ± 11.63
plasma MaR1n-3 DPA concentration in mice, Mean ± SEM (22 μg/mouse): 0.00 ± 0.00
plasma MaR2 concentration in mice, Mean ± SEM (22 μg/mouse): 1.28 ± 0.72
plasma PD1 concentration in mice, Mean ± SEM (22 μg/mouse): 9.99 ± 2.47
plasma PD1n-3 DPA concentration in mice, Mean ± SEM (22 μg/mouse): 0.28 ± 0.24
plasma PDx concentration in mice, Mean ± SEM (22 μg/mouse): 10.36 ± 2.79
plasma RvD1 concentration in mice, Mean ± SEM (22 μg/mouse): 0.14 ± 0.12
plasma RvD1n-3 DPA concentration in mice, Mean ± SEM (22 μg/mouse): 0.33 ± 0.48
plasma RvD2 concentration in mice, Mean ± SEM (22 μg/mouse): 2.99 ± 0.66
plasma RvD2n-3 DPA concentration in mice, Mean ± SEM (22 μg/mouse): 3.72 ± 3.41
plasma RvD3 concentration in mice, Mean ± SEM (22 μg/mouse): 0.18 ± 0.66
plasma RvD4 concentration in mice, Mean ± SEM (22 μg/mouse): 3.88 ± 0.55
plasma RvD5 concentration in mice, Mean ± SEM (22 μg/mouse): 0.00 ± 0.00
plasma RvD5n-3 DPA concentration in mice, Mean ± SEM (22 μg/mouse): 0.00 ± 0.00
plasma RvD6 concentration in mice, Mean ± SEM (22 μg/mouse): 0.00 ± 0.00
plasma RvE1 concentration in mice, Mean ± SEM (22 μg/mouse): 0.00 ± 0.00
plasma RvE2 concentration in mice, Mean ± SEM (22 μg/mouse): 0.96 ± 0.22
plasma RvE3 concentration in mice, Mean ± SEM (22 μg/mouse): 0.77 ± 0.64
plasma RvT1 concentration in mice, Mean ± SEM (22 μg/mouse): 9.49 ± 5.15
plasma RvT2 concentration in mice, Mean ± SEM (22 μg/mouse): 0.00 ± 0.00
plasma RvT3 concentration in mice, Mean ± SEM (22 μg/mouse): 0.87 ± 0.48
plasma RvT4 concentration in mice, Mean ± SEM (22 μg/mouse): 2.07 ± 1.16
ALOX15-derived SPM including RvT1, RvT4 and RvD5n-3 DPA [1]: upregulation
peripheral blood SPM profile [1]: dose-dependent shift
